Measurements from patent US20010036944A1, “Certain benzothiazine dioxide endothelin antagonists and processes for their preparation” (priority 1997, published 2001).
pIC50: −log10 of the molar value. Structures can show the parent of a compound that is named as a salt.

Key:
[1] = molecular target: T1, recombinant human ETAR (HETA) (Homo sapiens, UniProt P25101); test: Radioligand binding, [125I]ET-1 to membranes of Ltk- cells expressing recombinant human ETAR (HETA); conditions: [125I]ET-1 binding, human ETA, Ltk- cell membranes; read-out: HETA (IC50)
T1 construct: expressed in transfected cells; host or cells: Ltk- cells (membrane preparation)
T1 sequence (P25101 21-427): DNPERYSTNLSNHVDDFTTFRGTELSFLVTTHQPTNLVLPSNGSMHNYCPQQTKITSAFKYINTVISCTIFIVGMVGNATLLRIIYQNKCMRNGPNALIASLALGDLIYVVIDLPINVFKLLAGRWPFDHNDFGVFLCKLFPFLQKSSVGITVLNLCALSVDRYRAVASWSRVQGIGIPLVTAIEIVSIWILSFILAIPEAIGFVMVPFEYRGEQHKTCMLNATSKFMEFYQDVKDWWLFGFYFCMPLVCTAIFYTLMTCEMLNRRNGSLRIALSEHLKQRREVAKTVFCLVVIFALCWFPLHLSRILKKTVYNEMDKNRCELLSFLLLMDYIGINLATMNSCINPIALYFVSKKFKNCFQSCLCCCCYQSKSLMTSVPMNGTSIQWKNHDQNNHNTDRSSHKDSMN
Experimental: (§1) The following cultured cells were used in binding experiments: Ltk-cells expressing recombinant human ETAR (HETA), and CHOKI cells expressing recombinant human ETBR (HETB).
(§2) Membranes were prepared from cultured cells by lysing cells in cold lysis buffer (5 mM HEPES, 2 mM EDTA, pH 7.4) and homogenizing with a Dounce “A” homogenizer. The homogenate was centrifuged at 30,000×g for 20 minutes at […]. Membrane pellets were suspended in cold buffer containing 20 mM Tris, 2 mM EDTA, 200 μM Pefabloc, 10 μM phosphoramidon, 10 μM leupeptin, 1 μM pepstatin at pH 7.4 and frozen at […] until use. Membranes were thawed and homogenized with a Brinkmann Polytron then diluted in tissue buffer containing 20 mM Tris, 2 mM EDTA, 200 μM Pefabloc, and 100 μM bacitracin (pH 7.4). Radioligand and competing ligands were prepared in binding buffer containing 20 mM Tris, 2 mM EDTA, and 0.1% BSA.
(§3) The assay was terminated by filtration over Whatman GF/B filters which were presoaked with 50 mM Tris, pH 7.4 containing 0.2% BSA and 100 μM bacitracin. Nonspecific binding was defined as binding in the presence of 100 nM ET-1.

[2] = molecular target: T2, recombinant human ETBR (HETB) (Homo sapiens, UniProt P24530); test: Radioligand binding, [125I]ET-1 to membranes of CHOKI cells expressing recombinant human ETBR (HETB); conditions: [125I]ET-1 binding, human ETB, CHOKI cell membranes
T2 construct: expressed in transfected cells; host or cells: CHOKI (CHO-K1) cells (membrane preparation)
T2 sequence (P24530 27-442): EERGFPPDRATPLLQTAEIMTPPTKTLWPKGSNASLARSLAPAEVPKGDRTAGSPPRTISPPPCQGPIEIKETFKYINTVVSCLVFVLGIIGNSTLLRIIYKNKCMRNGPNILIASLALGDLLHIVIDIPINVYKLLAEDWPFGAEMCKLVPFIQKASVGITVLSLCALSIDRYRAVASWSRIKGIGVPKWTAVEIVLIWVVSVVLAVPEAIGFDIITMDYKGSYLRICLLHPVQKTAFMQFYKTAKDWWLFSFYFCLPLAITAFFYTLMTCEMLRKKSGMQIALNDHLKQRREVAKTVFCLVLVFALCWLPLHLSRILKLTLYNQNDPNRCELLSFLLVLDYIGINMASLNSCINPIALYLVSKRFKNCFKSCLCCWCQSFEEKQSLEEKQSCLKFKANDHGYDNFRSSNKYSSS
Experimental: as §1, §2, §3

[3] = test system: ETA, rabbit femoral artery; test: Antagonism of ET-1 stimulated vasoconstriction (VERAA) in the rabbit femoral artery (ETA); conditions: ET-1 stimulated vasoconstriction, rabbit femoral artery
Description: In Vitro Antagonism of ET-1 Stimulated Vasoconstriction (VERAA) in the Rabbit Femoral Arterv (ETA) and Sarafotoxin 6C Stimulated Vasoconstriction in the Rabbit Pulmonarv Artery (ETB)
Male New Zealand rabbits were killed by cervical dislocation and exsanguination. Femoral and pulmonary arteries were isolated, cleaned of connective tissue, and cut into 4mm rings. The endothelium was denuded by placing the rings over hypodermic tubing (32 gauge for femoral rings and 28 gauge for pulmonary rings, Small Parts, Inc., Miami, Fla.) and gently rolling them. Denuded rings were mounted in 20 mL organ baths containing Krebsbicarbonate buffer (composition in mM: NaCl, 118.2; NaHCO3, 24.8; KCl, 4.6; MgSO4 7H2O, 1.2; KH2PO4, 1.2; CaCl2 2H2O; CaNa2 EDTA, 0.026;, dextrose, 10.0), that was maintained at 37° C. and gassed continuously with 5% CO2 in oxygen (pH 7.4). Resting tension was adjusted to 3.0 g for femoral and 4.0 g pulmonary arteries; the rings were left for 90 minutes to equilibrate. Vascular rings were tested for lack of functional endothelium (ie, lack of an endotheliumdependent relaxation response to carbachol ([…]) in norepinephrine ([…]) contracted rings. Agonist peptides, ET-1 -(femoral), and S6c (pulmonary), were cumulatively added at 10-minute intervals. The ET antagonists were added 30 minutes prior to adding the agonist.

Compound	pIC50 [1]	pIC50 [2]	VERAA (pA2) [3]
4-(3,5-Dimethyl-phenyl)-2-(2-trifluoro-methyl-phenyl)-1,1-dioxo-1,2dihydro-1λ^6-benzo[e][1,2]thiazine-3-carboxylic acid [Example 31]	8.22	< 5.60	5.7
4-(6-Methoxybenzo[1,3]dioxol-5-yl)-1,1-dioxo-2-(2-trifluoro-methyl-phenyl)-1,2-dihydro-1λ^6-benzo[e]r [1,2]thiazine-3-carboxylic acid [Example 30]	7.02	< 5.60	–
COc1cc(OC)cc(C2=C(C(=O)O)N(c3ccccc3C(F)(F)F)S(=O)(=O)c3ccccc32)c1 [Example 1, 4-(3,5-Dimethoxyphenyl)2-(2-trifluoromethyl-phenyl)-1,1-dioxo-1,2-dihydro-1λ^6-benzo[e][1,2]thiazine-3-carboxylic acid]	8.52	< 5.60	6.6
COc1cc(OC)cc(C2=C(C(=O)O)N(c3ccccc3Cl)S(=O)(=O)c3ccccc32)c1 [Example 2]	8.70	5.14	6.6
COc1cc(OC)cc(C2=C(C(=O)O)N(c3ccccc3Br)S(=O)(=O)c3ccccc32)c1 [Example 3, 2-(2-Bromophenyl)-4-(3,5-dimethoxy-phenyl)-1,1-dioxo-1,2-dihydro-1 λ^6-benzo[e][1,2]thiazine-3-carboxylic acid]	8.52	< 5.60	–
COc1cc(C2=C(C(=O)O)N(c3ccccc3Cl)S(=O)(=O)c3ccccc32)cc2c1OCO2 [Example 4, 2-(2-Chloro-phenyl)-4-(7-methoxy-benzo[1,3]dioxol-5-yl)-1,1-dioxo-1,2-dihydro-1λ^6-benzo[e][1,2]-thiazine-3-carboxylic acid]	8.52	5.25	–
COc1cc(C2=C(C(=O)O)N(c3ccccc3Cc3ccccc3)S(=O)(=O)c3ccccc32)cc2c1OCO2 [Example 5, 2-(2-Benzylphenyl)4-(7-methoxy-benzo[1,3]dioxo-5-yl)-1,1-dioxo-1,2-dihydro-1λ^6-benzo[e][1,2]thiazine-3-carboxylic acid]	8.40	5.70	–
COc1cc(C2=C(C(=O)[O-])N(c3c(C)cccc3C)S(=O)(=O)c3ccccc32)cc2c1OCO2.[Na+] [Example 6, 2-(2,6-Dimeth Iphenyl)4-(7-methoxy-benzo-[1,3]dioxol-5vl)-1,1 dioxo 1,2dihydro 1λ^6-benzo[e][1,2]thiazine-3-carboxylic acid monosodium salt]	8.40	< 5.60	7.1
COc1cc(C2=C(C(=O)O)N(c3ccccc3C)S(=O)(=O)c3ccccc32)cc2c1OCO2 [Example 8, 4-(7-Methoxy-benzo[1,3]dioxol-5-yl)-1,1-dioxo-2o-tolyl-1,2-dihydro-1,6-benzo[e][1,2]-thiazine-3-carboxylic acid]	8.10	5.41	6.5
COc1cc(C2=C(C(=O)O)N(c3ccccc3Br)S(=O)(=O)c3ccccc32)cc2c1OCO2 [Example 9, 2-(2-Bromo-phenyl)4-(7-methoxy-benzo[1,3]-dioxol-5-yl)-1,1 dioxo 1,2-dihydro-1λ^6-benzo[e][1,2]-thiazine-3-carboxylic acid monosodium salt]	8.70	< 5.60	6.9
CCc1ccccc1N1C(C(=O)O)=C(c2ccc3c(c2)OCO3)c2ccccc2S1(=O)=O [Example 13, 4-Benzo [1,3]dioxol-5-yl-2-(2ethyl-phenyl)-1,1-dioxo-1,2-dihydro-1λ^6-benzo[e][1,2]thiazine-3-carboxylic acid]	7.64	< 5.60	–
CC(C)c1ccccc1N1C(C(=O)O)=C(c2ccc3c(c2)OCO3)c2ccccc2S1(=O)=O [Example 15, 4-Benzo[1,3]dioxol-5-yl-2-(2isopropylphenyl)-1,1-dioxo 1,2-dihydro 1λ^6-benzo[e][1,2]thiazine-3-carboxylic acid]	7.05	4.96	–
CCCCc1ccccc1N1C(C(=O)O)=C(c2ccc3c(c2)OCO3)c2ccccc2S1(=O)=O [Example 16, 4-Benzo[1,3]dioxol-5-yl-2-(2butylphenyl)-1,1-dioxo-1,2-dihydro-1λ^6-benzo[e][1,2]thiazine-3-carboxylic acid]	7.59	< 5.60	–
O=C(O)C1=C(c2ccc3c(c2)OCO3)c2ccccc2S(=O)(=O)N1c1ccccc1F [Example 19, 4-Benzo-[1,3]dioxol-5-yl-2-(2-fluorohenyl)-1,1-dioxo-1,2dihydro-1λ^6-benzo[e]rl[2]thiazine-3-carboxylic acid]	6.96	< 4.60	–
O=C(O)C1=C(c2ccc3c(c2)OCO3)c2ccccc2S(=O)(=O)N1c1cccc(Cl)c1Cl [Example 21, 4-Benzo-[1,3]dioxol-5-yl-2-(2,3-dichlorophenyl)1,1-dioxo-1,2dihydro1λ^6-benzo [e][1,2]thiazine-3-carboxylic acid]	7.52	4.89	–
O=C(O)C1=C(c2ccc3c(c2)OCO3)c2ccccc2S(=O)(=O)N1c1ccc(Cl)cc1Cl [Example 22]	7.30	4.89	–
COc1ccc(N2C(C(=O)O)=C(c3ccc4c(c3)OCO4)c3ccccc3S2(=O)=O)c(Cl)c1 [Example 23, 4-Benzo[1,3]dioxol-5-yl-2-(2-chloro-4-methoxyphenyl)-1,1-dioxo-1,2-dihydro-1λ^6-benzo[e][1,2]thiazine-3-carboxylic acid]	7.68	5.21	–
Cc1c(Cl)cccc1N1C(C(=O)O)=C(c2ccc3c(c2)OCO3)c2ccccc2S1(=O)=O [Example 24]	7.52	4.77	–
Cc1cccc(C)c1N1C(C(=O)O)=C(c2ccc3c(c2)OCO3)c2ccccc2S1(=O)=O [Example 26, 4-Benzo[1,3]dioxol-5-yl-2-(2,6dimethyl-phenyl)-1,1-dioxo-1,2dihydro-1λ^6-benzo[e][1,2]thiazine-3-carboxylic acid]	7.77	< 4.60	–
O=C(O)C1=C(c2ccc3c(c2)OCO3)c2ccccc2S(=O)(=O)N1c1ccccc1-n1cccc1 [Example 27, 4-Benzo[1,3]dioxol-5-yl-1,1-dioxo-2-(2-2-pyrrol-1-ylphenyl)-1,2-dihydro-1λ^6-benzo[e][12]thiazine-3-carboxylic acid]	7.40	4.72	–
Cc1noc(N2C(C(=O)O)=C(c3ccc4c(c3)OCO4)c3ccccc3S2(=O)=O)c1C [Example 28]	7.05	< 4.60	–
O=C(O)C1=C(c2ccc3c(c2)OCO3)c2ccccc2S(=O)(=O)N1c1ccccc1Cc1ccccc1 [Example 29, 4-Benzo[1,3]dioxol-5-yl-2-(2benzylphenyl)-1,1-dioxo-1,2-dihydro-1λ^6-benzo[e][1,2]thiazine-3-carboxylic acid]	7.40	< 5.60	–
